Assay results as given in PubChem BioAssay (NCI).
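Growth conditions: 96-well plates. Treatment: test compound, 48 hours, 5 concentrations. Analysis: linear interpolation between bracketing concentrations; unreached endpoints set to highest concentration. TGI is the concentration that stops growth completely.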

Tests used:
Assay in all cases: DTP human tumour cell line panel, 48 h
[1] = test system: SF-539 CNS
[2] = test system: OVCAR-8 ovarian
[3] = test system: KM12 colon
[4] = test system: SNB-75 CNS
[5] = test system: SNB-19 CNS
[6] = test system: RXF 393 renal
[7] = test system: NCI-H23 lung
[8] = test system: HS 578T breast
[9] = test system: U251 CNS
[10] = test system: MALME-3M melanoma
[11] = test system: A498 renal
[12] = test system: SK-OV-3 ovarian
[13] = test system: PC-3 prostate
[14] = test system: DU-145 prostate
[15] = test system: OVCAR-5 ovarian
[16] = test system: UO-31 renal
[17] = test system: OVCAR-3 ovarian
[18] = test system: SW-620 colon
[19] = test system: NCI/ADR-RES ovarian
[20] = test system: HOP-62 NSCLC
[21] = test system: HCT-116 colon
[22] = test system: NCI-H226 lung
[23] = test system: CAKI-1 renal
[24] = test system: CCRF-CEM leukemia
[25] = test system: UACC-62 melanoma
[26] = test system: M14 melanoma
[27] = test system: 786-0 renal
[28] = test system: SK-MEL-2 melanoma
[29] = test system: SF-295 CNS
[30] = test system: UACC-257 melanoma
[31] = test system: BT-549 breast
[32] = test system: MDA-MB-435
[33] = test system: SF-268 CNS
[34] = test system: EKVX NSCLC
[35] = test system: OVCAR-4 ovarian
[36] = test system: MOLT-4 leukemia
[37] = test system: T-47D breast
[38] = test system: SN12C renal
[39] = test system: MDA-MB-231 breast
[40] = test system: HCC-2998 colon
[41] = test system: A549 NSCLC
[42] = test system: NCI-H460 lung
[43] = test system: HCT-15 colon
[44] = test system: MDA-N
[45] = test system: ACHN renal
[46] = test system: K-562 leukemia
[47] = test system: RPMI-8226 leukemia
[48] = test system: MCF7 breast
[49] = test system: SK-MEL-28 melanoma
[50] = test system: COLO 205 colon
[51] = test system: HT29 colon
[52] = test system: TK-10 renal
[53] = test system: IGROV1 ovarian
[54] = test system: NCI-H522 lung
[55] = test system: LOX IMVI melanoma
[56] = test system: SK-MEL-5 melanoma
[57] = test system: HOP-92 NSCLC
[58] = test system: HL-60(TB) leukemia

**Q.** Which results are given for `Cc1n[nH]c(=O)n1/N=C/c1cccc(Cl)c1`?
**A.** TGI [1]: > 100 µM; TGI [2]: > 100 µM; TGI [3]: > 100 µM; TGI [4]: > 100 µM; TGI [5]: > 100 µM; TGI [6]: > 100 µM; TGI [7]: > 100 µM; TGI [8]: 39.7 µM; TGI [9]: > 100 µM; TGI [10]: > 100 µM; TGI [11]: > 100 µM; TGI [12]: > 100 µM; TGI [13]: > 100 µM; TGI [14]: > 100 µM; TGI [15]: > 100 µM; TGI [16]: > 100 µM; TGI [17]: > 100 µM; TGI [18]: > 100 µM; TGI [19]: > 100 µM; TGI [20]: > 100 µM; TGI [21]: > 100 µM; TGI [22]: > 100 µM; TGI [23]: > 100 µM; TGI [24]: > 100 µM; TGI [25]: > 100 µM; TGI [26]: > 100 µM; TGI [27]: > 100 µM; TGI [28]: > 100 µM; TGI [29]: > 100 µM; TGI [30]: > 100 µM; TGI [31]: > 100 µM; TGI [32]: > 100 µM; TGI [33]: > 100 µM; TGI [34]: > 100 µM; TGI [35]: > 100 µM; TGI [36]: > 100 µM; TGI [37]: > 100 µM; TGI [38]: > 100 µM; TGI [39]: > 100 µM; TGI [40]: > 100 µM; TGI [41]: > 100 µM; TGI [42]: > 100 µM; TGI [43]: > 100 µM; TGI [44]: > 100 µM; TGI [45]: > 100 µM; TGI [46]: > 100 µM; TGI [47]: > 100 µM; TGI [48]: > 100 µM; TGI [49]: > 100 µM; TGI [50]: > 100 µM; TGI [51]: > 100 µM

**Q.** `C=CCN(c1cc(OCc2ccccc2)c2c(c(C)cn2S(=O)(=O)c2ccc([N+](=O)[O-])cc2)c1[N+](=O)[O-])S(C)(=O)=O` was tested. Which TGI [1] did it give?
**A.** > 100 µM

**Q.** What about the TGI [2] of the same compound?
**A.** > 100 µM

**Q.** What about the TGI [3] of the same compound?
**A.** > 100 µM

**Q.** And the TGI [4]?
**A.** > 100 µM

**Q.** What about the TGI [52] of the same compound?
**A.** > 100 µM

**Q.** And the TGI [5]?
**A.** > 100 µM

**Q.** What about the TGI [6] of the same compound?
**A.** > 100 µM

**Q.** What about the TGI [53] of the same compound?
**A.** > 100 µM

**Q.** And the TGI [7]?
**A.** > 100 µM

**Q.** And the TGI [8]?
**A.** > 100 µM

**Q.** What about the TGI [9] of the same compound?
**A.** > 100 µM

**Q.** And the TGI [10]?
**A.** > 100 µM

**Q.** What about the TGI [12] of the same compound?
**A.** > 100 µM

**Q.** And the TGI [13]?
**A.** > 100 µM

**Q.** And the TGI [14]?
**A.** > 100 µM

**Q.** What about the TGI [15] of the same compound?
**A.** > 100 µM

**Q.** And the TGI [16]?
**A.** > 100 µM

**Q.** What about the TGI [17] of the same compound?
**A.** > 100 µM

**Q.** What about the TGI [19] of the same compound?
**A.** > 100 µM

**Q.** And the TGI [20]?
**A.** > 100 µM

**Q.** What about the TGI [21] of the same compound?
**A.** > 100 µM

**Q.** And the TGI [22]?
**A.** > 100 µM

**Q.** And the TGI [23]?
**A.** > 100 µM

**Q.** What about the TGI [24] of the same compound?
**A.** > 52.3 µM

**Q.** What about the TGI [25] of the same compound?
**A.** > 100 µM

**Q.** What about the TGI [54] of the same compound?
**A.** > 100 µM

**Q.** What about the TGI [26] of the same compound?
**A.** > 100 µM

**Q.** And the TGI [27]?
**A.** > 100 µM

**Q.** What about the TGI [28] of the same compound?
**A.** > 100 µM

**Q.** What about the TGI [29] of the same compound?
**A.** > 100 µM

**Q.** What about the TGI [30] of the same compound?
**A.** > 100 µM

**Q.** And the TGI [31]?
**A.** > 100 µM

**Q.** And the TGI [32]?
**A.** 54.1 µM

**Q.** What about the TGI [33] of the same compound?
**A.** > 100 µM

**Q.** What about the TGI [34] of the same compound?
**A.** > 100 µM

**Q.** And the TGI [35]?
**A.** > 100 µM

**Q.** What about the TGI [36] of the same compound?
**A.** > 100 µM

**Q.** What about the TGI [37] of the same compound?
**A.** > 100 µM

**Q.** And the TGI [38]?
**A.** > 100 µM

**Q.** And the TGI [55]?
**A.** > 100 µM

**Q.** What about the TGI [39] of the same compound?
**A.** > 100 µM

**Q.** What about the TGI [40] of the same compound?
**A.** > 100 µM

**Q.** And the TGI [41]?
**A.** > 100 µM

**Q.** What about the TGI [42] of the same compound?
**A.** > 100 µM

**Q.** And the TGI [43]?
**A.** > 100 µM

**Q.** What about the TGI [44] of the same compound?
**A.** > 100 µM

**Q.** And the TGI [45]?
**A.** > 100 µM

**Q.** And the TGI [46]?
**A.** > 100 µM

**Q.** And the TGI [56]?
**A.** > 100 µM

**Q.** What about the TGI [47] of the same compound?
**A.** > 100 µM

**Q.** What about the TGI [48] of the same compound?
**A.** > 100 µM

**Q.** And the TGI [49]?
**A.** > 100 µM

**Q.** And the TGI [50]?
**A.** > 100 µM

**Q.** And the TGI [57]?
**A.** > 100 µM

**Q.** And the TGI [51]?
**A.** > 100 µM

**Q.** With `NC12CC3C4CC5(N)CC3C(C1)C(C5)C4C2` as the compound, how does the TGI [2] read?
**A.** > 100 µM

**Q.** And the TGI [3]?
**A.** > 100 µM

**Q.** And the TGI [52]?
**A.** > 100 µM

**Q.** What about the TGI [5] of the same compound?
**A.** > 100 µM

**Q.** And the TGI [58]?
**A.** > 100 µM

**Q.** What about the TGI [6] of the same compound?
**A.** > 100 µM

**Q.** And the TGI [53]?
**A.** > 100 µM

**Q.** What about the TGI [7] of the same compound?
**A.** > 100 µM

**Q.** And the TGI [8]?
**A.** > 100 µM

**Q.** What about the TGI [9] of the same compound?
**A.** > 100 µM

**Q.** What about the TGI [10] of the same compound?
**A.** > 100 µM

**Q.** What about the TGI [11] of the same compound?
**A.** > 100 µM

**Q.** What about the TGI [12] of the same compound?
**A.** > 100 µM

**Q.** What about the TGI [13] of the same compound?
**A.** > 100 µM

**Q.** And the TGI [15]?
**A.** > 100 µM

**Q.** And the TGI [16]?
**A.** > 100 µM

**Q.** What about the TGI [17] of the same compound?
**A.** > 100 µM

**Q.** And the TGI [18]?
**A.** > 100 µM

**Q.** And the TGI [19]?
**A.** > 100 µM

**Q.** And the TGI [20]?
**A.** > 100 µM

**Q.** What about the TGI [21] of the same compound?
**A.** > 100 µM

**Q.** And the TGI [22]?
**A.** > 100 µM

**Q.** And the TGI [23]?
**A.** > 100 µM

**Q.** What about the TGI [24] of the same compound?
**A.** > 100 µM

**Q.** What about the TGI [25] of the same compound?
**A.** > 100 µM

**Q.** And the TGI [54]?
**A.** > 100 µM

**Q.** And the TGI [26]?
**A.** > 100 µM

**Q.** And the TGI [27]?
**A.** > 100 µM

**Q.** And the TGI [28]?
**A.** > 100 µM

**Q.** What about the TGI [29] of the same compound?
**A.** > 100 µM

**Q.** And the TGI [30]?
**A.** > 100 µM

**Q.** And the TGI [31]?
**A.** > 100 µM

**Q.** What about the TGI [32] of the same compound?
**A.** > 100 µM

**Q.** And the TGI [33]?
**A.** > 100 µM

**Q.** What about the TGI [34] of the same compound?
**A.** > 100 µM

**Q.** What about the TGI [35] of the same compound?
**A.** > 100 µM

**Q.** What about the TGI [36] of the same compound?
**A.** > 100 µM

**Q.** And the TGI [37]?
**A.** > 100 µM

**Q.** What about the TGI [38] of the same compound?
**A.** > 100 µM

**Q.** What about the TGI [55] of the same compound?
**A.** > 100 µM

**Q.** And the TGI [39]?
**A.** > 100 µM

**Q.** And the TGI [41]?
**A.** > 100 µM

**Q.** And the TGI [42]?
**A.** > 100 µM

**Q.** What about the TGI [43] of the same compound?
**A.** > 100 µM

**Q.** What about the TGI [44] of the same compound?
**A.** > 100 µM

**Q.** What about the TGI [45] of the same compound?
**A.** > 100 µM

**Q.** And the TGI [46]?
**A.** > 100 µM

**Q.** What about the TGI [56] of the same compound?
**A.** > 100 µM

**Q.** And the TGI [48]?
**A.** > 100 µM

**Q.** And the TGI [49]?
**A.** > 100 µM

**Q.** And the TGI [50]?
**A.** > 100 µM

**Q.** What about the TGI [57] of the same compound?
**A.** > 100 µM

**Q.** What about the TGI [51] of the same compound?
**A.** > 100 µM
